Laboratory results published in ChEMBL document CHEMBL5143518, “Pyridazino-pyrrolo-quinoxalinium salts as highly potent and selective leishmanicidal agents targeting trypanothione reductase” (Eur J Med Chem, 2022).
Active and inactive are the calls of the source. No cut-off for these calls is given here.

Columns and labels:
Trypanothione reductase [1] = target: T1, Trypanothione reductase (Leishmania infantum, UniProt A4HSF7); test: Inhibition of recombinant His-tagged Leishmania infantum TryR oxidoreductase activity expressed in Escherichia coli BL21 (DE3) using TS2 and NADPH as substrate by DTNB-reagent based spectrophotometric method
[2] = Cytotoxicity against human THP-1 cells assessed as reduction in cell proliferation incubated for 24 hrs by propidium iodide staining based flow cytometry
[3] = Selectivity index, ratio of LC50 for cytotoxicity against human THP-1 cells to EC50 of leishmanicidal activity against axenic amastigote stage of Leishmania infantum MCAN/ES/89/IPZ229/1/89
Leishmania infantum [4] = test: Leishmanicidal activity against axenic amastigote stage of Leishmania infantum MCAN/ES/89/IPZ229/1/89 assessed as reduction of proliferation of amastigotes incubated for 24 hrs by propidium iodide staining based flow cytometry; type: functional, organism-based; conditions: MCAN/ES/89/IPZ229/1/89, 24 h
Leishmania infantum [5] = test: Leishmanicidal activity against GFP-expressing axenic amastigote stage of Leishmania infantum MCAN/ES/89/IPZ229/1/89 infected in human THP-1 macrophage cells assessed as reduction in intracellular amastigotes incubated for 48 hrs by propidium iodide staining based flow cytometry; type: functional, organism-based; conditions: MCAN/ES/89/IPZ229/1/89, THP-1, 48 h
Trypanothione reductase [6] = target: T1, Trypanothione reductase; test: Non competitive type inhibition of recombinant His-tagged Leishmania infantum TryR oxidoreductase activity expressed in Escherichia coli BL21 (DE3) assessed as inhibition constant using NADPH and varying concentration of TS2 as substrate by double reciprocal Lineweaver-Burk plot analysis
[7] = target: Trypanothione reductase (Leishmania infantum) (UniProt A4HSF7); test: Uncompetitive type inhibition of recombinant His-tagged Leishmania infantum TryR oxidoreductase activity expressed in Escherichia coli BL21 (DE3) assessed as inhibition constant using TS2 and varying concentration of NADPH as substrate by double reciprocal Lineweaver-Burk plot analysis
[8] = target: Trypanothione reductase (Leishmania infantum) (UniProt A4HSF7); test: Inhibition of recombinant His-tagged Leishmania infantum TryR expressed in Escherichia coli BL21 (DE3) assessed as TryR mediated cytochrome c reduction in presence of NADPH at 10 uM by spectrophotometric method

T1 sequence (A4HSF7 whole entry): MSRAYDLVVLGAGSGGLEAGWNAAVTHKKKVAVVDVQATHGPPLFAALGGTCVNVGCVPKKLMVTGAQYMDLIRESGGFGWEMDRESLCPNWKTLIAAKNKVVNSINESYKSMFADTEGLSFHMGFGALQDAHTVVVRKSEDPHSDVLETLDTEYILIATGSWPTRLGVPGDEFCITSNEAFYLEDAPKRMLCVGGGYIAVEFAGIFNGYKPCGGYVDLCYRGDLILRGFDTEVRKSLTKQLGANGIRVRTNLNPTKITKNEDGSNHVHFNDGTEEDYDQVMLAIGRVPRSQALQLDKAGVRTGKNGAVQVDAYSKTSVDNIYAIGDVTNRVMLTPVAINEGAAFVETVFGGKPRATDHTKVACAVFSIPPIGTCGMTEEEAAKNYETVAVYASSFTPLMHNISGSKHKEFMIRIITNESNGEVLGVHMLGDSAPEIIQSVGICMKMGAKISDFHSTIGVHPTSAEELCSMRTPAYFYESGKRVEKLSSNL
Sequence of Trypanothione reductase (Leishmania infantum) (A4HSF7 as listed by the source): as the sequence (A4HSF7 whole entry) above

Compound	IC50 (Trypanothione reductase [1]) [nM]	CC50 at 24 h [2] [nM]	selectivity ratio [3]	EC50 (Leishmania infantum [4]) [nM]	EC50 (Leishmania infantum [5]) [nM]	Ki (Trypanothione reductase [6]) [nM]	alphaKi [7] [µM]	inhibition [8]
CCN(CC)CCCC(C)Nc1c2ccc(Cl)cc2nc2ccc(OC)cc12 (stereo not drawn) [QUINACRINE]	13500	–	–	–	–	–	–	–
CCCCCCCCCCCCCCCCOP(=O)([O-])OCC[N+](C)(C)C [MILTEFOSINE]	–	7690	14.8	520	550	–	–	–
CCc1cc2c3ccc(Br)n3c3cc(Cl)ccc3[n+]2nc1CC	2980	6850	85.6	80	1230	2830	1.37	Active
CCc1cc2c3cccn3c3cc(Cl)ccc3[n+]2nc1CC	25700	24300	304	80	3100	–	–	–
